The record followed here is US6620839B2, “1,3-disubstituted and 1,3,3-trisubstituted pyrrolidines as histamine-3 receptor ligands and their therapeutic applications” (Abbott Laboratories, priority 2000, dated 2003).

By Ki is commonly meant the equilibrium dissociation constant of an inhibitor or competing ligand from its target. A lower Ki goes with higher affinity.

The structures appear in SMILES notation.

T1 sequence (Q9QYN8 whole entry): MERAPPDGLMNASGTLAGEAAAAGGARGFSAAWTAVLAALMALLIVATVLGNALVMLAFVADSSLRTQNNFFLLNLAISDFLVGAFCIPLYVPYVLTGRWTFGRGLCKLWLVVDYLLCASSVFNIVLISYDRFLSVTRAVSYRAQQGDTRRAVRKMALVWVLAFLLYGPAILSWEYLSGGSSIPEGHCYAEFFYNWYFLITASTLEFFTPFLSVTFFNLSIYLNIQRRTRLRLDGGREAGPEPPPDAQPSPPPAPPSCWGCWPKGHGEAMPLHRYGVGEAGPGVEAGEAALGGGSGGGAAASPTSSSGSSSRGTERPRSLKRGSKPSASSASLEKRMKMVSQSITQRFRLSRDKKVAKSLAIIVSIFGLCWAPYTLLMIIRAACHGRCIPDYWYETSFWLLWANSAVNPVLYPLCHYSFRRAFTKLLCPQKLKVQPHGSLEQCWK

The experiment concerns the target T1, histamine-3 receptor (Rattus norvegicus, UniProt Q9QYN8).
T1 construct: from tissue; host or cells: male Sprague-Dawley rat brain cortex membranes
Description: Histamine-3 receptor binding, (3H)-N-α-methylhistamine displacement in rat cortical membranes. The note with it: male Sprague-Dawley rat brain cortical membranes; (3H)-N-α-methylhistamine ~0.6 nM; 30 minutes at 25° C.; Cheng-Prusoff. How it is done:
Briefly, male Sprague-Dawley rat brain cortices were homogenized (1 g tissue/10 mL buffer) in 50 mM Tris-HCl/5 mM EDTA containing protease inhibitor cocktail (Calbiochem) using a polytron set at 20,500 rpm. Homogenates were centrifuged for 20 minutes at 40,000×g. The supernatant was decanted, and pellets were weighed. The pellet was resuspended by polytron homogenization in 40 mL 50 mM Tris-HCl/5 mM EDTA with protease inhibitors and centrifuged for 20 minutes at 40,000×g. […] Test compounds were dissolved in DMSO to provide 20 mM solution, serially diluted and then added to the incubation mixtures prior to initiating the incubation assay by addition of the membranes. Thioperamide (3 μM) was used to determine nonspecific binding. Binding incubations were conducted for 30 minutes at 25° C. and terminated by addition of 2 mL of ice cold 50 mM Tris-HCl (pH 7.7) and filtration through 0.3% polyethylenimine-soaked Unifilter plates (Packard). These filters were washed 4 additional times with 2 mL of ice-cold 50 mM Tris-HCl and dried for 1 hour. Radioactivity was determined using liquid scintillation counting techniques. Results were analyzed by Hill transformation and Ki values were determined using the Cheng-Prusoff equation.
In the case of `COc1ccc(S(=O)(=O)N[C@@H]2CCN(CCCOc3ccc(-c4ccc(C#N)cc4)cc3)C2)cc1OC` [Example 42], the Ki was found to be 8.8 nM.

On to `Cc1ccc(S(=O)(=O)N[C@@H]2CCN(CCCOc3ccc(-c4ccc(C#N)cc4)cc3)C2)cc1Cl` [Example 43, 3-chloro-N-((3R)-1-{3-[(4′-cyano[1,1′-biphenyl]-4-yl)oxy]propyl}pyrrolidinyl)-4-methylbenzenesulfonamide], for which the affinity corresponds to a Ki of 37 nM.

`N#Cc1ccc(-c2ccc(OCCCN3CC[C@@H](NS(=O)(=O)C=Cc4ccccc4)C3)cc2)cc1` [Example 44] showed a Ki of 52 nM.

`N#Cc1ccc(-c2ccc(OCCCN3CC[C@@H](NS(=O)(=O)c4ccccc4OC(F)(F)F)C3)cc2)cc1` [Example 45] showed a Ki of 127 nM.

`N#Cc1ccc(-c2ccc(OCCCN3CC[C@@H](NS(=O)(=O)c4ccccc4C#N)C3)cc2)cc1` [Example 46, 2-cyano-N-((3R)-1-{3-[(4′-cyano[1,1′-biphenyl]-4-yl)oxy]propyl}pyrrolidinyl)benzenesulfonamide] displayed an inhibitory constant (Ki) of 103 nM.

As to `Cc1cccc(S(=O)(=O)N[C@@H]2CCN(CCCOc3ccc(-c4ccc(C#N)cc4)cc3)C2)c1` [Example 47], the Ki amounted to 12 nM.

With `N#Cc1ccc(-c2ccc(OCCCN3CC[C@@H](NS(=O)(=O)c4ccc(C(F)(F)F)cc4)C3)cc2)cc1` [Example 48], the Ki was found to be 60 nM.

`N#Cc1ccc(-c2ccc(OCCCN3CC[C@@H](NS(=O)(=O)c4cccc(F)c4)C3)cc2)cc1` [Example 49]: the Ki was 13 nM.

`N#Cc1ccc(-c2ccc(OCCCN3CC[C@@H](NS(=O)(=O)c4ccc(OC(F)(F)F)cc4)C3)cc2)cc1` [Example 50] came in with an inhibition constant Ki of 60 nM.

`N#Cc1ccc(-c2ccc(OCCCN3CC[C@@H](NS(=O)(=O)c4ccc(F)cc4F)C3)cc2)cc1` [Example 51]: the inhibition constant Ki was 9.3 nM.

Compound `N#Cc1ccc(-c2ccc(OCCCN3CC[C@@H](NS(=O)(=O)c4ccc5ccncc5c4)C3)cc2)cc1` [Example 52] gave an inhibition constant (Ki) of 15 nM.

For the compound `CC(=O)Nc1ccc(S(=O)(=O)N[C@@H]2CCN(CCCOc3ccc(-c4ccc(C#N)cc4)cc3)C2)cc1Cl` [Example 53, N-(2-chloro-4-{[((3R)-1-{3-[(4′-cyano[1,1′-biphenyl]-4-yl)oxy]propyl}pyrrolidinyl)amino]sulfonyl}phenyl)acetamide], the inhibitory constant (Ki) is 3.9 nM.

`N#Cc1ccc(-c2ccc(OCCCN3CC[C@@H](NS(=O)(=O)c4ccc(Cl)c(Cl)c4)C3)cc2)cc1` [Example 54, 3,4-dichloro-N-((3R)-1-{3-[(4′-cyano[1,1′-biphenyl]-4-yl)oxy]propyl}pyrrolidinyl)benzenesulfonamide] had a Ki of 98 nM.

In the case of `O=C(c1ccc(OCCCN2CC[C@@H](NS(=O)(=O)c3ccccc3)C2)cc1)C1CC1` [Example 55, N-((3R)-1-{3-[4-(cyclopropylcarbonyl)phenoxy]propyl}pyrrolidinyl)benzenesulfonamide], the Ki was 2.9 nM.

Compound `O=C(c1ccc(OCCCN2CC[C@@H](NS(=O)(=O)c3ccc(Br)cc3)C2)cc1)C1CC1` [Example 56, 4-bromo-N-((3R)-1-{3-[4-(cyclopropylcarbonyl)phenoxy]propyl}pyrrolidinyl)benzenesulfonamide] returned an inhibition constant Ki of 4.7 nM.

With `O=C(c1ccc(OCCCN2CC[C@@H](NS(=O)(=O)c3ccc(F)cc3)C2)cc1)C1CC1` [Example 57, N-((3R)-1-{3-[4-(cyclopropylcarbonyl)phenoxy]propyl}pyrrolidinyl)-4-fluorobenzenesulfonamide], the inhibition constant (Ki) turned out to be 3.6 nM.

The compound `O=C(c1ccc(OCCCN2CC[C@@H](NS(=O)(=O)c3ccc(Cl)cc3)C2)cc1)C1CC1` [Example 58, 4-chloro-N-((3R)-1-{3-[4-(cyclopropylcarbonyl)phenoxy]propyl}pyrrolidinyl)benzenesulfonamide] displayed an inhibition constant (Ki) of 3.9 nM.

Regarding `COc1ccc(S(=O)(=O)N[C@@H]2CCN(CCCOc3ccc(C(=O)C4CC4)cc3)C2)cc1` [Example 59, N-((3R)-1-{3-[4-(cyclopropylcarbonyl)phenoxy]propyl}pyrrolidinyl)-4-methoxybenzenesulfonamide], the Ki was 3 nM.
